# Source: patent US10233173B2, “Substituted 1,2,3-triazoles as NR2B-selective NMDA modulators” (JANSSEN PHARMACEUTICA NV, priority 2016, dated 2019)
# Molecular target: human GluN1/GluN2B NMDA receptors (Homo sapiens, UniProt Q05586+Q13224)
# Test: Cell-based calcium flux (FLIPR) assay on cloned human NR1/NR2B ion channels expressed in mammalian cells
# Settings: standard assay; glutamate at ~EC80; FLIPR calcium flux
# Summary of the method: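 Calcium influx followed by FLIPR fluorescence after 5 min compound exposure and a further 5 min co-agonist challenge: 10 μM glycine with glutamate at ~EC80 (standard) or EC40 (HTS).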
# Sequence of human GluN1/GluN2B NMDA receptors (Q13224 27-1484, other chains not shown): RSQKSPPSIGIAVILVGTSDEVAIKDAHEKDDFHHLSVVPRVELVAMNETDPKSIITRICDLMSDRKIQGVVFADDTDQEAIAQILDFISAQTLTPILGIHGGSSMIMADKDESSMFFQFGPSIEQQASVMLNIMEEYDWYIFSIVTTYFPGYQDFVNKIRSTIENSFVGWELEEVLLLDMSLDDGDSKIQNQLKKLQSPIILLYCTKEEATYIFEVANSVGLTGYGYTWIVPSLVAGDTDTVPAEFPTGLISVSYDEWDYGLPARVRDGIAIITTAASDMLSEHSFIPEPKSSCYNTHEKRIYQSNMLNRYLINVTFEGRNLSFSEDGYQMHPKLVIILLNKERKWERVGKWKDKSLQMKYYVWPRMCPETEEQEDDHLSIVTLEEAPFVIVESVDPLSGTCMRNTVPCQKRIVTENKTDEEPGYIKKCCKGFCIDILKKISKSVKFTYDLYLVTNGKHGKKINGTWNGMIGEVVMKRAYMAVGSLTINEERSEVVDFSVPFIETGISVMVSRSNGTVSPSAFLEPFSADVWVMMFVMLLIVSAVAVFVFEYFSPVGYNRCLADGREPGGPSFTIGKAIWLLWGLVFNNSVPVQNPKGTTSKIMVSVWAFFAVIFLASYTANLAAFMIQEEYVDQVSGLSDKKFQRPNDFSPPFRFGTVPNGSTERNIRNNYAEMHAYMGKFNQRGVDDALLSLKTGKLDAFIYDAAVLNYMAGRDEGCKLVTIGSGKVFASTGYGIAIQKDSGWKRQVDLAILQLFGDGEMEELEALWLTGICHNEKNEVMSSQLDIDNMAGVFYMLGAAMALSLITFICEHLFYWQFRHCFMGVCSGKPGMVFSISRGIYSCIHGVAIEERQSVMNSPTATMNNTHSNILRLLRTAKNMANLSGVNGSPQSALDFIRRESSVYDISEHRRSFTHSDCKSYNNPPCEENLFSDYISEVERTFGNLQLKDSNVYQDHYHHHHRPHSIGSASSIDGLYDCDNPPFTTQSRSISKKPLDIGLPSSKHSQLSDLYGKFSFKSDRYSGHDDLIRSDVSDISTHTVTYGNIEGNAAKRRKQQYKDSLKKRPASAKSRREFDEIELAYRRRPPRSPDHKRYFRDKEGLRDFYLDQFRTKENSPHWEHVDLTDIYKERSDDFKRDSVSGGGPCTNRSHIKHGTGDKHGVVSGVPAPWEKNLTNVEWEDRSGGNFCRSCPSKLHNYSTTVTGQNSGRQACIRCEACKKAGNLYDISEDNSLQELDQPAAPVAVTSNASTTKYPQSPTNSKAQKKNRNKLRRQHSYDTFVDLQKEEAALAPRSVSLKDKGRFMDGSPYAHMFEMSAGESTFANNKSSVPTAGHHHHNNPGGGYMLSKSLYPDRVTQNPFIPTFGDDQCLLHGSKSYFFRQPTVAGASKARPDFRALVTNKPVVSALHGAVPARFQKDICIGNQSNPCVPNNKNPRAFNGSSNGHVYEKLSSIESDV
row,SMILES,IC50 [µM]
1,"CC(F)(F)c1cc(-n2cc(COc3ncc(C(F)F)cn3)nn2)ccc1F [Example 562, 2-[[1-[3-(1,1-Difluoroethyl)-4-fluoro-phenyl]triazol-4-yl]methoxy]-5-(difluoromethyl)pyrimidine]",0.014
2,"Fc1ccc(-n2cc(COc3ncc(N4CC(F)(F)C4)cn3)nn2)cc1OC(F)F [Example 508, 5-(3,3-Difluoroazetidin-1-yl)-2-[[1-[3-(difluoromethoxy)-4-fluoro-phenyl]triazol-4-yl]methoxy]pyrimidine]",0.019
3,"CC(F)(F)c1cnc(OCc2cn(-c3ccc(F)c(C(F)F)c3)nn2)nc1 [Example 701, 5-(1,1-Difluoroethyl)-2-((1-(3-(difluoromethyl)-4-fluorophenyl)-1H-1,2,3-triazol-4-yl)methoxy)pyrimidine]",0.958
4,"Nc1ccnc(OCc2cn(-c3ccc(F)c(OC(F)F)c3)nn2)n1 [Example 501, 2-[[1-[3-(Difluoromethoxy)-4-fluoro-phenyl]triazol-4-yl]methoxy]pyrimidin-4-amine]",0.052
5,"Cc1c(F)cccc1-n1cc(COc2ncc(C(C)(C)O)cn2)nn1 [Example 466, 2-[2-[[1-(3-Fluoro-2-methyl-phenyl)triazol-4-yl]methoxy]pyrimidin-5-yl]propan-2-ol]",7.01
6,"Fc1ccc(-n2cc(COc3ncc(F)c(NCC(F)F)n3)nn2)cc1OC(F)F [Example 517, N-(2,2-Difluoroethyl)-2-[[1-[3-(difluoromethoxy)-4-fluoro-phenyl]triazol-4-yl]methoxy]-5-fluoro-pyrimidin-4-amine]",0.912
7,"FC1CN(c2cnc(OCc3cn(-c4ccc(Cl)c(OC(F)F)c4)nn3)nc2)C1 [Example 392, 2-((1-(4-Chloro-3-(difluoromethoxy)phenyl)-1H-1,2,3-triazol-4-yl)methoxy)-5-(3-fluoroazetidin-1-yl)pyrimidine]",0.017
8,"Cc1c(F)ccc(-n2cc(COc3ncc(C(C)(C)O)cn3)nn2)c1F [Example 644, 2-[2-[[1-(2,4-Difluoro-3-methyl-phenyl)triazol-4-yl]methoxy]pyrimidin-5-yl]propan-2-ol]",0.967
9,"Cc1nc(OCc2cn(-c3ccc(F)c(C(F)(F)F)c3)nn2)ncc1F [Example 445, 5-Fluoro-2-[[1-[4-fluoro-3-(trifluoromethyl)phenyl]triazol-4-yl]methoxy]-4-methyl-pyrimidine]",0.006

# Same assay, conditions: standard assay; human GluN1/GluN2B, calcium flux (FLIPR), glutamate ~EC80
row,SMILES,IC50 [µM]
1,"Cc1cnc(OCc2cn(-c3ccc(F)c(C(C)(F)F)c3)nn2)nc1 [Example 77, 2-[[1-[3-(1,1-Difluoroethyl)-4-fluoro-phenyl]triazol-4-yl]methoxy]-5-methyl-pyrimidine]",0.004
2,"Cc1cccc(-n2cc(COc3ncc(C)c(N)n3)nn2)c1 [Example 254, 5-Methyl-2-[[1-(m-tolyl)triazol-4-yl]methoxy]pyrimidin-4-amine]",0.151
3,"COc1cc(Cl)cnc1OCc1cn(-c2ccc(Cl)c(OC(F)F)c2)nn1 [Example 106, 5-Chloro-2-[[1-[4-chloro-3-(difluoromethoxy)phenyl]triazol-4-yl]methoxy]-3-methoxy-pyridine]",0.276
4,"CC(F)(F)c1cccc(-n2cc(COc3ncc(C4CC4)cn3)nn2)c1 [Example 319, 5-Cyclopropyl-2-[[1-[3-(1,1-difluoroethyl)phenyl]triazol-4-yl]methoxy]pyrimidine]",0.015
5,"CC(C)c1cccc(-n2cc(COc3ncc(Cl)cn3)nn2)c1 [Example 265, 5-Chloro-2-[[1-(3-isopropylphenyl)triazol-4-yl]methoxy]pyrimidine]",0.016
6,"CCc1cnc(OCc2cn(-c3ccc(Cl)c(OC(F)F)c3)nn2)nc1 [Example 27, 2-[[1-[4-Chloro-3-(difluoromethoxy)phenyl]triazol-4-yl]methoxy]-5-ethyl-pyrimidine]",0.009
7,"Cc1cnc(O[C@H](C)c2cn(-c3ccc(Cl)c(OC(F)F)c3)nn2)nc1 [Example 376, 2-[(1R)-1-[1-[4-Chloro-3-(difluoromethoxy)phenyl]triazol-4-yl]ethoxy]-5-methyl-pyrimidine]",0.011
